From US9302999B2, “Substituted triazoles as herbicides” (E. I. DU PONT DE NEMOURS AND COMPANY, priority 2012, dated 2016)

What was measured:
Assay type in all cases: in vivo
[1] = tested on: ducksalad (Heteranthera limosa); assay: Test B flooded paddy: ducksalad; settings: Flood; 250 g ai/ha; applied to paddy water at 2-leaf stage; visually evaluated after 13 to 15 days
How it was run: (§1)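 Visual ratings (0 = no effect, 100 = complete control) versus untreated controls were taken 13–15 days after treatment of greenhouse plants. Treatment was added to paddy water held at 3 cm depth on 2-leaf-stage seedlings.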

corn (Zea mays) = assay: Test A pre-/postemergence: corn
How it was run: (§2)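 Soil medium was loam blended with sand; treatments pre- and postemergence were applied concurrently, postemergence at one- to two-leaf stage. Approximately ten days in greenhouse preceded visual comparison with untreated controls, scored 0 (no effect) to 100 (complete control).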

[2] = tested on: lambsquarters (Chenopodium album); assay: Test C pre-/postemergence: lambsquarters
How it was run: (§3)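 Visual injury scored 0–100 (100 = complete control) against untreated controls after 13–15 greenhouse days. Surfactant-containing solvent formulations applied either to soil after sowing (loam/sand) or over 1- to 4-leaf plants, 2–18 cm tall.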

[3] = tested on: common (oilseed) sunflower (Helianthus annuus); assay: Test C pre-/postemergence: sunflower; settings: Preemergence
How it was run: as §3

[4] = tested on: ragweed (common ragweed, Ambrosia elation); assay: Test C pre-/postemergence: ragweed
How it was run: as §3

[5] = tested on: pigweed (Amaranthus retroflexus); assay: Test A pre-/postemergence: pigweed
How it was run: as §2

[6] = tested on: bermudagrass (Cynodon dactylon); assay: Test C pre-/postemergence: bermudagrass
How it was run: as §3

[7] = tested on: wheat (Triticum aestivum); assay: Test A pre-/postemergence: wheat
How it was run: as §2

[8] = tested on: sedge, umbrella (small-flower umbrella sedge Cyperus difformis); assay: Test B flooded paddy: sedge, umbrella; settings: Flood; 250 g ai/ha; applied to paddy water at 2-leaf stage; visually evaluated after 13 to 15 days
How it was run: as §1

[9] = tested on: morningglory (Ipomoea coccinea); assay: Test C pre-/postemergence: morningglory
How it was run: as §3

[10] = Postemergence, 125 g ai/ha, 0 to 100 scale, 0 is no effect, 100 is complete control
[11] = Postemergence, 500 g ai/ha, visual rating on 0 to 100 scale (0 no effect, 100 complete control), approximately ten days
[12] = Preemergence, 125 g ai/ha, 0 to 100 scale (0 no effect, 100 complete control)
[13] = Preemergence, 500 g ai/ha, 0 to 100 scale, 0 is no effect, 100 is complete control
[14] = Postemergence, 31 g ai/ha, scale 0 to 100 (0 no effect, 100 complete control)
[15] = Postemergence, 62 g ai/ha, scale 0 to 100 (0 no effect, 100 complete control)
[16] = Postemergence, 125 g ai/ha, scale 0 to 100, 0 no effect, 100 complete control
[17] = Postemergence, 250 g ai/ha, scale 0 to 100
[18] = Preemergence, 31 g ai/ha, scale of 0 to 100, 0 is no effect, 100 is complete control
[19] = Preemergence, 62 g ai/ha, scale of 0 to 100, 0 is no effect, 100 is complete control
[20] = Preemergence, 125 g ai/ha, scale 0 to 100, 0 no effect, 100 complete control
[21] = Preemergence, 250 g ai/ha, scale 0 to 100, 0 no effect, 100 complete control
[22] = 31 g ai/ha, scale of 0 to 100, 0 is no effect, 100 is complete control
[23] = 62 g ai/ha, scale of 0 to 100, 0 is no effect, 100 is complete control
[24] = 125 g ai/ha, scale 0 to 100, 0 no effect, 100 complete control
[25] = 250 g ai/ha, scale 0 to 100, 0 no effect, 100 complete control
[26] = Preemergence, 62 g ai/ha, scale 0 to 100, 0 no effect, 100 complete control
[27] = Postemergence, 1000 g ai/ha, visual rating on 0 to 100 scale (0 no effect, 100 complete control), approximately ten days
[28] = Preemergence, 1000 g ai/ha, 0 to 100 scale, 0 is no effect, 100 is complete control
[29] = Preemergence, 125 g ai/ha, 0 to 100 scale where 0 is no effect and 100 is complete control
[30] = Preemergence, 500 g ai/ha, 0 to 100 scale (0 no effect, 100 complete control)

Compound: Fc1ccc(-n2nc(Cc3ccnc(C(F)(F)F)c3)c(OC(F)F)n2)cc1 [Compound 25]
- Plant response rating, Ducksalad (0 to 100 scale, 0 is no effect, 100 is complete control) [1]: 90
- Corn plant response rating (corn (Zea mays); [10]): 30
- Corn plant response rating (corn (Zea mays); [11]): 30
- Plant response rating, Corn (corn (Zea mays); [12]): 10
- Plant response rating, Corn (corn (Zea mays); [13]): 30
- Plant response rating, Lambsquarters [2, 14]: 70
- Plant response rating, Lambsquarters [2, 15]: 80
- Plant response rating, Lambsquarters [2, 16]: 98
- Plant response rating, Lambsquarters [2, 17]: 98
- Plant response rating, Lambsquarters [2, 18]: 90
- Plant response rating, Lambsquarters [2, 19]: 90
- Plant response rating, Lambsquarters [2, 20]: 98
- Plant response rating, Lambsquarters [2, 21]: 98
- Plant response rating, Sunflower [3, 22]: 0
- Plant response rating, Sunflower [3, 23]: 0
- Plant response rating, Sunflower [3, 24]: 0
- Plant response rating, Sunflower [3, 25]: 0
- Plant response rating, Ragweed [4, 14]: 50
- Plant response rating, Ragweed [4, 15]: 50
- Plant response rating, Ragweed [4, 16]: 60
- Plant response rating, Ragweed [4, 17]: 60
- Plant response rating, Ragweed [4, 18]: 5
- Plant response rating, Ragweed [4, 19]: 5
- Plant response rating, Ragweed [4, 20]: 20
- Plant response rating, Ragweed [4, 21]: 50
- Pigweed plant response rating [5, 10]: 100
- Pigweed plant response rating [5, 11]: 100
- Plant response rating, Pigweed [5, 12]: 100
- Plant response rating, Pigweed [5, 13]: 100
- Plant response rating, Bermudagrass [6, 14]: 15
- Plant response rating, Bermudagrass [6, 15]: 20
- Plant response rating, Bermudagrass [6, 16]: 25
- Plant response rating, Bermudagrass [6, 17]: 25
- Plant response rating, Bermudagrass [6, 18]: 85
- Plant response rating, Bermudagrass [6, 26]: 98
- Plant response rating, Bermudagrass [6, 20]: 98
- Plant response rating, Bermudagrass [6, 21]: 100
- Wheat plant response rating [7, 10]: 40
- Wheat plant response rating [7, 11]: 60
- Plant response rating, Wheat [7, 12]: 20
- Plant response rating, Wheat [7, 13]: 80
- Plant response rating, Sedge, Umbrella (0 to 100 scale, 0 is no effect, 100 is complete control) [8]: 95

Compound: FC(F)Oc1nn(-c2ccc(C(F)(F)F)cc2)nc1Cc1ccnc(C(F)(F)F)c1 [Compound 26]
- Plant response rating, Ducksalad (0 to 100 scale, 0 is no effect, 100 is complete control) [1]: 40
- Corn plant response rating (corn (Zea mays); [10]): 30
- Corn plant response rating (corn (Zea mays); [11]): 40
- Plant response rating, Corn (corn (Zea mays); [12]): 30
- Plant response rating, Corn (corn (Zea mays); [13]): 50
- Plant response rating, Lambsquarters [2, 14]: 80
- Plant response rating, Lambsquarters [2, 15]: 95
- Plant response rating, Lambsquarters [2, 16]: 98
- Plant response rating, Lambsquarters [2, 17]: 98
- Plant response rating, Lambsquarters [2, 18]: 70
- Plant response rating, Lambsquarters [2, 19]: 98
- Plant response rating, Lambsquarters [2, 20]: 98
- Plant response rating, Lambsquarters [2, 21]: 100
- Plant response rating, Sunflower [3, 22]: 0
- Plant response rating, Sunflower [3, 24]: 10
- Plant response rating, Sunflower [3, 25]: 15
- Plant response rating, Ragweed [4, 14]: 40
- Plant response rating, Ragweed [4, 15]: 55
- Plant response rating, Ragweed [4, 16]: 90
- Plant response rating, Ragweed [4, 17]: 95
- Plant response rating, Ragweed [4, 18]: 15
- Plant response rating, Ragweed [4, 19]: 35
- Plant response rating, Ragweed [4, 20]: 50
- Plant response rating, Ragweed [4, 21]: 75
- Pigweed plant response rating [5, 10]: 100
- Pigweed plant response rating [5, 11]: 100
- Plant response rating, Pigweed [5, 12]: 100
- Plant response rating, Pigweed [5, 13]: 100
- Plant response rating, Bermudagrass [6, 14]: 20
- Plant response rating, Bermudagrass [6, 15]: 20
- Plant response rating, Bermudagrass [6, 16]: 30
- Plant response rating, Bermudagrass [6, 17]: 30
- Plant response rating, Bermudagrass [6, 18]: 75
- Plant response rating, Bermudagrass [6, 26]: 100
- Plant response rating, Bermudagrass [6, 20]: 100
- Plant response rating, Bermudagrass [6, 21]: 100
- Wheat plant response rating [7, 10]: 60
- Wheat plant response rating [7, 11]: 80
- Plant response rating, Wheat [7, 12]: 50
- Plant response rating, Wheat [7, 13]: 80
- Plant response rating, Sedge, Umbrella (0 to 100 scale, 0 is no effect, 100 is complete control) [8]: 90

Compound: Cc1nn(-c2ccc(C(F)(F)F)cn2)nc1Cc1cccc(C(F)(F)F)c1 [Compound 106]
- Plant response rating, Morningglory [9, 14]: 0
- Plant response rating, Morningglory [9, 15]: 20
- Plant response rating, Morningglory [9, 16]: 40
- Plant response rating, Morningglory [9, 17]: 40
- Plant response rating, Morningglory [9, 18]: 0
- Plant response rating, Morningglory [9, 19]: 0
- Plant response rating, Morningglory [9, 20]: 10
- Plant response rating, Morningglory [9, 21]: 60
- Corn plant response rating (corn (Zea mays); [27]): 10
- Corn plant response rating (corn (Zea mays); [28]): 10
- Plant response rating, Lambsquarters [2, 14]: 80
- Plant response rating, Lambsquarters [2, 15]: 100
- Plant response rating, Lambsquarters [2, 16]: 100
- Plant response rating, Lambsquarters [2, 17]: 100
- Plant response rating, Lambsquarters [2, 18]: 85
- Plant response rating, Lambsquarters [2, 19]: 100
- Plant response rating, Lambsquarters [2, 20]: 100
- Plant response rating, Lambsquarters [2, 21]: 100
- Plant response rating, Sunflower [3, 23]: 0
- Plant response rating, Sunflower [3, 24]: 0
- Plant response rating, Sunflower [3, 25]: 0
- Plant response rating, Ragweed [4, 14]: 10
- Plant response rating, Ragweed [4, 15]: 55
- Plant response rating, Ragweed [4, 16]: 60
- Plant response rating, Ragweed [4, 17]: 60
- Plant response rating, Ragweed [4, 18]: 0
- Plant response rating, Ragweed [4, 19]: 0
- Plant response rating, Ragweed [4, 20]: 0
- Plant response rating, Ragweed [4, 21]: 55
- Pigweed plant response rating [5, 27]: 100
- Pigweed plant response rating [5, 28]: 90
- Plant response rating, Bermudagrass [6, 14]: 40
- Plant response rating, Bermudagrass [6, 15]: 40
- Plant response rating, Bermudagrass [6, 16]: 55
- Plant response rating, Bermudagrass [6, 17]: 80
- Plant response rating, Bermudagrass [6, 18]: 100
- Plant response rating, Bermudagrass [6, 26]: 100
- Plant response rating, Bermudagrass [6, 20]: 100
- Plant response rating, Bermudagrass [6, 21]: 100
- Wheat plant response rating [7, 27]: 10
- Wheat plant response rating [7, 28]: 0

Compound: Cc1nn(-c2ccc(C(F)(F)F)cc2)nc1Oc1ccnc(C(F)(F)F)c1 [Compound 120]
- Plant response rating, Morningglory [9, 14]: 60
- Plant response rating, Morningglory [9, 15]: 60
- Plant response rating, Morningglory [9, 16]: 65
- Plant response rating, Morningglory [9, 17]: 98
- Plant response rating, Morningglory [9, 18]: 45
- Plant response rating, Morningglory [9, 19]: 45
- Plant response rating, Morningglory [9, 20]: 45
- Plant response rating, Morningglory [9, 21]: 90
- Corn plant response rating (corn (Zea mays); [10]): 20
- Corn plant response rating (corn (Zea mays); [11]): 50
- Plant response rating, Corn (corn (Zea mays); [29]): 20
- Plant response rating, Corn (corn (Zea mays); [30]): 30
- Plant response rating, Lambsquarters [2, 14]: 100
- Plant response rating, Lambsquarters [2, 15]: 100
- Plant response rating, Lambsquarters [2, 16]: 100
- Plant response rating, Lambsquarters [2, 17]: 100
- Plant response rating, Lambsquarters [2, 18]: 85
- Plant response rating, Lambsquarters [2, 19]: 100
- Plant response rating, Lambsquarters [2, 20]: 100
- Plant response rating, Lambsquarters [2, 21]: 100
- Plant response rating, Sunflower [3, 22]: 0
- Plant response rating, Sunflower [3, 23]: 0
- Plant response rating, Sunflower [3, 24]: 0
- Plant response rating, Sunflower [3, 25]: 5
- Plant response rating, Ragweed [4, 14]: 60
- Plant response rating, Ragweed [4, 15]: 60
- Plant response rating, Ragweed [4, 16]: 80
- Plant response rating, Ragweed [4, 17]: 85
- Plant response rating, Ragweed [4, 18]: 0
- Plant response rating, Ragweed [4, 19]: 45
- Plant response rating, Ragweed [4, 20]: 45
- Plant response rating, Ragweed [4, 21]: 65
- Pigweed plant response rating [5, 10]: 90
- Pigweed plant response rating [5, 11]: 100
- Plant response rating, Pigweed [5, 29]: 100
- Plant response rating, Pigweed [5, 30]: 100
- Plant response rating, Bermudagrass [6, 14]: 5
- Plant response rating, Bermudagrass [6, 15]: 5
- Plant response rating, Bermudagrass [6, 16]: 5
- Plant response rating, Bermudagrass [6, 17]: 10
- Plant response rating, Bermudagrass [6, 18]: 98
- Plant response rating, Bermudagrass [6, 26]: 98
- Plant response rating, Bermudagrass [6, 20]: 98
- Plant response rating, Bermudagrass [6, 21]: 100
- Wheat plant response rating [7, 10]: 10
- Wheat plant response rating [7, 11]: 30
- Plant response rating, Wheat [7, 29]: 10
- Plant response rating, Wheat [7, 30]: 20
